This assay concerns the target T1, NLRP3 (Mus musculus, UniProt Q8R4B8).
T1 construct: full length recombinant NLRP3 protein (N-Flag, expressed in Expi293F cells)
The experiment in a line: intrinsic fluorescence spectroscopy titration (ex […]/em […] nm); supported by Western blot thermal shift ([…] to […] °C). It is filed as binding. For orientation: In western blotting, separated proteins are transferred to a membrane and probed.

Experimental findings from article PMC11450741, “Functional Characterization of an Arylsulfonamide-Based Small-Molecule Inhibitor of the NLRP3 Inflammasome” (ACS Chemical Neuroscience, 2024) are described below.

The term Kd denotes the free concentration of one partner at which half of the binding sites on the other are occupied at equilibrium, for simple one-to-one binding.

T1 sequence (Q8R4B8 whole entry): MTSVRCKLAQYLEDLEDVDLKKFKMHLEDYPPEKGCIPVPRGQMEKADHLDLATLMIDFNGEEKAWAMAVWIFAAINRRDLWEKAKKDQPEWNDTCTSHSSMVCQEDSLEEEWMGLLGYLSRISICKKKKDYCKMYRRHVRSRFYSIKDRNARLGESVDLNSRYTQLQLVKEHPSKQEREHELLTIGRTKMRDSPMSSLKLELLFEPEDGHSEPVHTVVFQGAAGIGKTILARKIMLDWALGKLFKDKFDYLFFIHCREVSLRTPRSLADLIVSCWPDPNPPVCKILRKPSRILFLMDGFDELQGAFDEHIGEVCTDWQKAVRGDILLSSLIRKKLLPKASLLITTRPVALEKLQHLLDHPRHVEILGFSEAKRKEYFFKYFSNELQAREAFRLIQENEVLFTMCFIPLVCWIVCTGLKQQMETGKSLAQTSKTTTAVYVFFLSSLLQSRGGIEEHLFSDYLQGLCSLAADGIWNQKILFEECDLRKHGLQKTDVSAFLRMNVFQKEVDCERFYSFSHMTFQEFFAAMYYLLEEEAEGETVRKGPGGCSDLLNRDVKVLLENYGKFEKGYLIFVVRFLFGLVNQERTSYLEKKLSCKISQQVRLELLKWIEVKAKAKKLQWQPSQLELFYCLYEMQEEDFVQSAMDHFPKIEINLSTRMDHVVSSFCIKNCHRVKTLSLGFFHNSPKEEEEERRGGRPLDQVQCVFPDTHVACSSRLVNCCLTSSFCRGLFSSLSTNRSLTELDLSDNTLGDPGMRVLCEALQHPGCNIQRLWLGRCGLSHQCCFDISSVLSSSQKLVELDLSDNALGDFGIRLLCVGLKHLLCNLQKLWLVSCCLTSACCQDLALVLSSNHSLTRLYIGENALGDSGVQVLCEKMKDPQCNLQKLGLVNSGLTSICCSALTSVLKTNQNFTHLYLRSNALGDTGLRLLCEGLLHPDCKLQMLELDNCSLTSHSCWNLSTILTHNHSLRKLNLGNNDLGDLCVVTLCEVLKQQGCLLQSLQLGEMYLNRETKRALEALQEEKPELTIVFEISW

As for `CCCOc1ccc(Cl)cc1CN(CCc1ccc(S(=O)(=O)N2CCOCC2)cc1)C(=O)Cc1ccsc1` [YM-I-26], the Kd was 560 ± 30.3 nM.
